According to the supplement of paper PMC10307832:

Key:
Experiment in all cases: relative viability (nuclei count vs DMSO), 5 days (fraction); higher = more cells survive
[1] = compound: COC1=CC=C(C=C1)CN2C=CC3=C2C=C(C=C3)C(=O)NO + CCNC(=O)c1noc(-c2cc(C(C)C)c(O)cc2O)c1-c1ccc(CN2CCOCC2)cc1 [Luminespib] (partner 0.01 µM)
Procedure, shortened: (§1)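 Relative viability equals treated-well nuclei counts divided by vehicle-well nuclei counts. Counts came from 4× images of lung cancer cell lines grown in 1536-well plates for 5 days after pin-tool dosing on the day after seeding. Dosing used one drug alone or a fixed anchor-drug dose plus five library-drug doses (not always all listed) in √10 steps, and values are medians of duplicate plates.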

Veliparib + Olaparib = compound: C[C@]1(c2nc3c(C(N)=O)cccc3[nH]2)CCCN1 [Veliparib] + O=C(c1cc(Cc2n[nH]c(=O)c3ccccc23)ccc1F)N1CCN(C(=O)C2CC2)CC1 [Olaparib] (partner 8 µM)
Procedure, shortened: as §1

[2] = compound: COC1=CC=C(C=C1)CN2C=CC3=C2C=C(C=C3)C(=O)NO + CC(=O)Nc1cccc(-n2c(=O)n(C3CC3)c(=O)c3c(Nc4ccc(I)cc4F)n(C)c(=O)c(C)c32)c1 [Trametinib] (partner 0.02 µM)
Procedure, shortened: as §1

Veliparib + Pictilisib = compound: C[C@]1(c2nc3c(C(N)=O)cccc3[nH]2)CCCN1 [Veliparib] + CS(=O)(=O)N1CCN(Cc2cc3nc(-c4cccc5[nH]ncc45)nc(N4CCOCC4)c3s2)CC1 [Pictilisib] (partner 1 µM)
Procedure, shortened: as §1

Row | Cell Line | relative viability ([1]; first compound 0.08 µM) | relative viability ([1]; first compound 0.253 µM) | relative viability ([1]; first compound 0.8 µM) | relative viability ([1]; first compound 2.53 µM) | relative viability ([1]; first compound 8 µM) | relative viability (Veliparib + Olaparib; first compound 0.02 µM) | relative viability (Veliparib + Olaparib; first compound 0.06325 µM) | relative viability (Veliparib + Olaparib; first compound 0.2 µM) | relative viability (Veliparib + Olaparib; first compound 0.6325 µM) | relative viability (Veliparib + Olaparib; first compound 2 µM) | relative viability ([2]; first compound 0.253 µM) | relative viability ([2]; first compound 0.8 µM) | relative viability ([2]; first compound 2.53 µM) | relative viability ([2]; first compound 8 µM) | relative viability (Veliparib + Pictilisib; first compound 0.06325 µM) | relative viability (Veliparib + Pictilisib; first compound 0.2 µM) | relative viability (Veliparib + Pictilisib; first compound 0.6325 µM) | relative viability (Veliparib + Pictilisib; first compound 2 µM) | relative viability ([2]; first compound 0.08 µM) | relative viability (Veliparib + Pictilisib; first compound 0.02 µM)
1 | NCI-H358 | 0.25 | 0.428 | 0.374 | 0.434 | 0.213 | 0.673 | 0.739 | 0.662 | 0.564 | 0.597 | 0.165 | 0.153 | 0.15 | 0.112 | 0.37 | 0.38 | 0.315 | 0.342 |  | 
2 | NCI-H441 | 0.27 | 0.322 | 0.37 | 0.422 | 0.322 | 0.691 | 0.637 | 0.573 | 0.598 | 0.595 | 0.491 | 0.61 | 0.422 | 0.449 | 0.501 | 0.588 | 0.504 | 0.516 | 0.353 | 0.472
3 | NCI-H460 | 0.0291 | 0.0369 | 0.0487 | 0.0276 | 0.0281 | 0.427 | 0.316 | 0.489 | 0.434 | 0.425 | 0.123 | 0.153 | 0.178 | 0.0809 | 0.335 | 0.325 | 0.347 | 0.377 | 0.157 | 0.349
4 | NCI-H520 |  | 0.207 | 0.193 | 0.227 | 0.226 | 0.352 | 0.329 | 0.332 | 0.366 | 0.358 | 0.723 | 0.74 | 0.555 | 0.723 | 0.267 | 0.316 | 0.283 | 0.227 | 0.426 | 0.392
5 | NCI-H596 | 0.934 | 0.955 | 0.972 | 1.01 | 0.863 | 0.832 | 0.587 | 0.75 | 0.7 | 0.738 | 0.797 | 0.923 | 0.776 | 0.758 | 0.35 | 0.4 | 0.362 | 0.416 | 0.64 | 0.394
6 | NCI-H647 | 0.23 | 0.216 | 0.226 | 0.185 | 0.111 | 0.657 | 0.465 | 0.659 | 0.505 | 0.572 | 0.365 | 0.493 | 0.669 | 0.439 | 0.368 | 0.436 | 0.447 | 0.265 | 0.481 | 0.347
7 | NCI-H650 | 0.816 | 0.758 | 0.774 | 0.745 | 0.574 | 0.355 | 0.329 | 0.383 | 0.431 | 0.378 | 0.981 | 1 | 1.03 | 1.04 | 0.855 | 0.926 | 0.743 | 0.809 | 1.07 | 0.968
8 | NCI-H661 |  | 0.873 | 0.883 | 0.88 | 0.765 | 0.749 | 0.824 | 0.712 | 0.692 | 0.741 | 0.634 | 0.611 | 0.533 | 0.457 | 0.317 | 0.354 | 0.359 | 0.393 |  | 0.397
9 | NCI-H727 | 0.345 | 0.406 | 0.311 | 0.436 | 0.323 | 0.601 | 0.549 | 0.739 | 0.665 | 0.748 | 0.383 | 0.377 | 0.37 | 0.371 | 0.33 | 0.433 | 0.296 | 0.431 | 0.418 | 0.195
10 | NCI-H838 |  | 0.315 | 0.364 | 0.354 | 0.381 | 0.852 | 0.729 | 0.802 | 0.702 | 0.764 | 0.472 | 0.561 | 0.547 | 0.429 | 0.455 | 0.418 | 0.335 | 0.457 | 0.346 | 0.441
11 | NCI-H1355 |  | 0.834 | 0.776 | 0.7 | 0.522 | 0.656 | 0.69 | 0.764 | 0.678 | 0.78 | 0.433 | 0.403 | 0.473 | 0.44 | 0.329 | 0.477 | 0.406 | 0.472 | 0.42 | 
12 | NCI-H1395 | 0.662 | 0.659 | 0.628 | 0.708 | 0.604 | 0.435 | 0.395 | 0.448 | 0.415 | 0.471 | 1.07 | 1.06 | 0.96 | 0.995 | 0.516 | 0.557 | 0.675 | 0.524 |  | 
13 | NCI-H1437 | 1 | 1.13 | 1.09 | 1.18 | 1.13 | 0.688 | 0.624 | 0.616 | 0.653 | 0.661 | 0.494 | 0.538 | 0.66 | 0.57 | 0.512 | 0.552 | 0.378 | 0.362 | 0.452 | 0.419
14 | NCI-H1650 | 0.194 | 0.189 | 0.194 | 0.213 | 0.203 | 0.918 | 0.679 | 0.729 | 0.707 | 0.757 | 0.595 | 0.645 | 0.624 | 0.539 | 0.507 | 0.61 | 0.519 | 0.566 | 0.543 | 
15 | NCI-H1651 | 0.927 | 0.885 | 1.02 | 0.816 | 0.655 | 0.172 | 0.197 | 0.183 | 0.173 | 0.183 | 0.917 | 0.867 | 0.787 | 0.828 | 0.601 | 0.559 | 0.457 | 0.558 | 0.798 | 0.572
16 | NCI-H1666 | 0.911 | 1.07 | 1.01 | 0.987 | 1.15 | 0.777 | 0.711 | 0.82 | 0.771 | 0.778 | 0.881 | 0.849 | 0.934 | 0.793 | 0.334 | 0.625 | 0.427 | 0.49 | 0.835 | 0.357
17 | NCI-H1734 |  | 0.219 | 0.218 | 0.181 | 0.184 |  | 0.577 | 0.666 | 0.567 | 0.691 | 0.739 | 0.725 | 0.716 | 0.732 | 0.436 | 0.492 | 0.437 | 0.435 |  | 0.461
